Results published in PMC5218480 (PLoS ONE, 2017).

System: MV-4-11 cells
Experiment: Gene expression microarray analysis (Affymetrix PrimeView) and GSEA
Type: cell-based, human
Parameters: RFU PODN (11730768_x_at) / Fold change /veh PODN (11730768_x_at) / RFU LINC00158 (11744669_a_at) / Fold change /veh LINC00158 (11744669_a_at) / RFU DUSP10 (11751237_a_at) / Fold change /veh DUSP10 (11751237_a_at) / RFU ID3 (11757404_x_at) / Fold change /veh ID3 (11757404_x_at) / RFU PLEKHG5 (11737974_s_at) / Fold change /veh PLEKHG5 (11737974_s_at) / RFU LRRC4B (11730491_at) / Fold change /veh LRRC4B (11730491_at) / RFU GIMAP4 (11747438_a_at) / Fold change /veh GIMAP4 (11747438_a_at) / RFU KRT8 (11758183_x_at) / Fold change /veh KRT8 (11758183_x_at) / RFU CNN1 (11734310_a_at) / Fold change /veh CNN1 (11734310_a_at) / RFU VPS37D (11726825_at) / Fold change /veh VPS37D (11726825_at) / RFU C10orf10 (11716522_x_at) / Fold change /veh C10orf10 (11716522_x_at) / RFU KIR2DL2 /// KIR2DL4 /// KIR2DL5A /// KIR2DL5B /// KIR2DS1 /// KIR2DS2 /// KIR2DS3 /// KIR2DS4 /// KIR3DL3 /// KIR3DL3 /// KIR3DS1 (11738374_at) / Fold change /veh KIR2DL2 /// KIR2DL4 /// KIR2DL5A /// KIR2DL5B /// KIR2DS1 /// KIR2DS2 /// KIR2DS3 /// KIR2DS4 /// KIR3DL3 /// KIR3DL3 /// KIR3DS1 (11738374_at) / RFU C1QL1 (11718748_at) / Fold change /veh C1QL1 (11718748_at) / RFU TMPRSS4 (11747572_a_at) / Fold change /veh TMPRSS4 (11747572_a_at) / RFU HAMP (11756126_x_at) / Fold change /veh HAMP (11756126_x_at) / RFU RNFT2 (11725882_a_at) / Fold change /veh RNFT2 (11725882_a_at) / RFU NR4A2 (11747474_a_at) / Fold change /veh NR4A2 (11747474_a_at) / RFU ABCC12 (11746883_a_at) / Fold change /veh ABCC12 (11746883_a_at) / RFU TMEM136 (11760407_x_at) / Fold change /veh TMEM136 (11760407_x_at) / RFU CLDN22 /// WWC2 (11732394_at) / Fold change /veh CLDN22 /// WWC2 (11732394_at) / RFU HLA-DPB1 (11760878_x_at) / Fold change /veh HLA-DPB1 (11760878_x_at) / RFU SPINT1 (11716480_a_at) / Fold change /veh SPINT1 (11716480_a_at) / RFU GAP43 (11754022_s_at) / Fold change /veh GAP43 (11754022_s_at) / RFU A4GNT (11735810_at) / Fold change /veh A4GNT (11735810_at) / RFU PRB3 (11715151_x_at) / Fold change /veh PRB3 (11715151_x_at) / RFU TUBB4B (11761932_at) / Fold change /veh TUBB4B (11761932_at) / RFU CAPN14 (11732068_a_at) / Fold change /veh CAPN14 (11732068_a_at) / RFU TMCC2 (11721928_a_at) / Fold change /veh TMCC2 (11721928_a_at) / RFU IRGQ (11745062_a_at) / Fold change /veh IRGQ (11745062_a_at) / RFU FAM174B (11720279_a_at) / Fold change /veh FAM174B (11720279_a_at) / RFU TMPRSS4 (11748680_a_at) / Fold change /veh TMPRSS4 (11748680_a_at) / RFU FAM212B (11763350_a_at) / Fold change /veh FAM212B (11763350_a_at) / RFU PLEKHG5 (11743358_a_at) / Fold change /veh PLEKHG5 (11743358_a_at) / RFU ZSCAN30 (11745921_a_at) / Fold change /veh ZSCAN30 (11745921_a_at) / RFU CMKLR1 (11741424_a_at) / Fold change /veh CMKLR1 (11741424_a_at) / RFU LOC101060620 /// MAPK8IP1 (11723275_at) / Fold change /veh LOC101060620 /// MAPK8IP1 (11723275_at) / RFU SPTSSB (11747773_x_at) / Fold change /veh SPTSSB (11747773_x_at) / RFU PRSS12 (11739890_at) / Fold change /veh PRSS12 (11739890_at) / RFU BIN1 (11741810_x_at) / Fold change /veh BIN1 (11741810_x_at) / RFU WNT11 (11732464_a_at) / Fold change /veh WNT11 (11732464_a_at) / RFU C10orf10 (11716521_a_at) / Fold change /veh C10orf10 (11716521_a_at) / RFU C5orf56 (11738089_at) / Fold change /veh C5orf56 (11738089_at) / RFU CYB561 (11721691_x_at) / Fold change /veh CYB561 (11721691_x_at) / RFU ANKRD19P (11752326_a_at) / Fold change /veh ANKRD19P (11752326_a_at) / RFU OR2T12 /// OR2T33 /// OR2T8 (11738714_s_at) / Fold change /veh OR2T12 /// OR2T33 /// OR2T8 (11738714_s_at) / RFU VCAN (11748164_a_at) / Fold change /veh VCAN (11748164_a_at) / RFU JSRP1 (11732532_at) / Fold change /veh JSRP1 (11732532_at) / RFU KRTAP10-11 (11738290_x_at) / Fold change /veh KRTAP10-11 (11738290_x_at) / RFU MYO3A (11730013_a_at) / Fold change /veh MYO3A (11730013_a_at) / RFU EBF3 (11725865_a_at) / Fold change /veh EBF3 (11725865_a_at) / RFU CAMK2N1 (11719241_x_at) / Fold change /veh CAMK2N1 (11719241_x_at) / RFU C5orf56 (11738088_a_at) / Fold change /veh C5orf56 (11738088_a_at) / RFU OLFML3 (11715873_a_at) / Fold change /veh OLFML3 (11715873_a_at) / RFU LOC100653217 /// NTM (11731650_a_at) / Fold change /veh LOC100653217 /// NTM (11731650_a_at) / RFU MAPK11 (11762145_a_at) / Fold change /veh MAPK11 (11762145_a_at) / RFU FIZ1 (11724087_x_at) / Fold change /veh FIZ1 (11724087_x_at) / RFU OASL (11726364_x_at) / Fold change /veh OASL (11726364_x_at) / RFU SOX15 (11748057_x_at) / Fold change /veh SOX15 (11748057_x_at) / RFU CD79A (11719716_a_at) / Fold change /veh CD79A (11719716_a_at) / RFU HIST1H1D (11736915_at) / Fold change /veh HIST1H1D (11736915_at) / RFU CASKIN2 (11723855_a_at) / Fold change /veh CASKIN2 (11723855_a_at) / RFU LOC730098 (11760151_x_at) / Fold change /veh LOC730098 (11760151_x_at) / RFU OR4N2 (11742367_at) / Fold change /veh OR4N2 (11742367_at) / RFU PRRT2 (11749266_a_at) / Fold change /veh PRRT2 (11749266_a_at) / RFU SNX32 (11753110_a_at) / Fold change /veh SNX32 (11753110_a_at) / RFU CDHR5 (11726645_a_at) / Fold change /veh CDHR5 (11726645_a_at) / RFU RCAN1 (11760418_a_at) / Fold change /veh RCAN1 (11760418_a_at) / RFU FAM167A (11723789_a_at) / Fold change /veh FAM167A (11723789_a_at) / RFU FAM26E (11764081_at) / Fold change /veh FAM26E (11764081_at) / RFU ISYNA1 (11749810_s_at) / Fold change /veh ISYNA1 (11749810_s_at) / RFU ACY1 (11761880_at) / Fold change /veh ACY1 (11761880_at) / RFU 11764098_at / Fold change /veh 11764098_at / RFU SAMD14 (11745864_x_at) / Fold change /veh SAMD14 (11745864_x_at) / RFU NPB (11741838_a_at) / Fold change /veh NPB (11741838_a_at) / RFU TMPRSS6 (11731388_a_at) / Fold change /veh TMPRSS6 (11731388_a_at) / RFU KRTAP10-2 (11738614_at) / Fold change /veh KRTAP10-2 (11738614_at) / RFU ARHGAP8 /// PRR5-ARHGAP8 (11727945_x_at) / Fold change /veh ARHGAP8 /// PRR5-ARHGAP8 (11727945_x_at) / RFU KRTAP5-7 /// NADSYN1 (11734609_at) / Fold change /veh KRTAP5-7 /// NADSYN1 (11734609_at) / RFU RASL12 (11751679_a_at) / Fold change /veh RASL12 (11751679_a_at) / RFU CDKN2B (11736163_a_at) / Fold change /veh CDKN2B (11736163_a_at) / RFU PRF1 (11729649_at) / Fold change /veh PRF1 (11729649_at) / RFU, ZNF638 /// ZNF638-IT1 / Fold change vs veh, ZNF638 /// ZNF638-IT1 / RFU, PANK3 / Fold change vs veh, PANK3 / RFU, SH3YL1 / Fold change vs veh, SH3YL1 / RFU, ZEB2 / Fold change vs veh, ZEB2 / RFU, NRIP1 / Fold change vs veh, NRIP1 / RFU, PTTG1IP / Fold change vs veh, PTTG1IP / RFU, CAPN2 / Fold change vs veh, CAPN2 / RFU, MED14 / Fold change vs veh, MED14 / RFU, SNORA58 / Fold change vs veh, SNORA58 / RFU, C1orf63 / Fold change vs veh, C1orf63 / RFU, LRRFIP1 / Fold change vs veh, LRRFIP1 / RFU, NDUFAF7 / Fold change vs veh, NDUFAF7 / RFU, SLC12A2 / Fold change vs veh, SLC12A2 / RFU, IBTK / Fold change vs veh, IBTK / RFU, ESF1 / Fold change vs veh, ESF1 / Fold change vs veh, TMEM50B / RFU, TAOK1 / Fold change vs veh, TAOK1 / RFU, ACBD3 / Fold change vs veh, ACBD3 / RFU, TMA16 / Fold change vs veh, TMA16 / RFU, RWDD3 / Fold change vs veh, RWDD3 / RFU, BCAT1 / Fold change vs veh, BCAT1 / RFU, EDEM3 / Fold change vs veh, EDEM3 / RFU, TMEM33 / Fold change vs veh, TMEM33 / RFU, WDR75 / Fold change vs veh, WDR75 / RFU, AHCTF1 / Fold change vs veh, AHCTF1 / RFU, TFRC / Fold change vs veh, TFRC / RFU, ZDHHC17 / Fold change vs veh, ZDHHC17 / RFU, NOM1 / Fold change vs veh, NOM1 / RFU, ARL8B / Fold change vs veh, ARL8B / RFU, ZBTB11 / Fold change vs veh, ZBTB11 / RFU, TAMM41 / Fold change vs veh, TAMM41 / RFU, KIAA1704 /// LOC100996395 / Fold change vs veh, KIAA1704 /// LOC100996395 / RFU, ING1 / Fold change vs veh, ING1 / RFU, TRMT61B / Fold change vs veh, TRMT61B / RFU, FUBP3 / Fold change vs veh, FUBP3 / RFU, TP53 / Fold change vs veh, TP53 / RFU, TNKS2 / Fold change vs veh, TNKS2 / RFU, ZFP14 / Fold change vs veh, ZFP14 / RFU, ACTR2 / Fold change vs veh, ACTR2 / RFU, PPP3R1 / Fold change vs veh, PPP3R1 / RFU, PIK3R1 / Fold change vs veh, PIK3R1 / RFU, HNRNPA1 / Fold change vs veh, HNRNPA1 / RFU, RNF170 / Fold change vs veh, RNF170 / RFU, ZNF28 / Fold change vs veh, ZNF28 / RFU, RNGTT / Fold change vs veh, RNGTT / RFU, OGT / Fold change vs veh, OGT / RFU, BRD1 / Fold change vs veh, BRD1 / RFU, MARS / Fold change vs veh, MARS / RFU, ZNF655 / Fold change vs veh, ZNF655 / RFU, FAHD1 / Fold change vs veh, FAHD1 / RFU, BDP1 / Fold change vs veh, BDP1 / RFU, LRRCC1 / Fold change vs veh, LRRCC1 / RFU, ARID1A / Fold change vs veh, ARID1A / RFU, ZNF146 / Fold change vs veh, ZNF146 / RFU, ZNF330 / Fold change vs veh, ZNF330 / RFU, GPN3 / Fold change vs veh, GPN3 / RFU, C9orf123 / Fold change vs veh, C9orf123 / RFU, N4BP2L2 / Fold change vs veh, N4BP2L2 / RFU, ARFIP1 / Fold change vs veh, ARFIP1 / RFU, FAM179B / Fold change vs veh, FAM179B / RFU, BCL10 / Fold change vs veh, BCL10 / RFU, UHRF1BP1L / Fold change vs veh, UHRF1BP1L / RFU, BET1 / Fold change vs veh, BET1 / RFU, CNOT2 / Fold change vs veh, CNOT2 / RFU, ZNF268 / Fold change vs veh, ZNF268 / Fold change vs veh, ZNF507 / RFU, DGCR2 / Fold change vs veh, DGCR2 / RFU, WDSUB1 / Fold change vs veh, WDSUB1 / Fold change vs veh, HSP90B1 /// MIR3652 / RFU, ADSS / Fold change vs veh, ADSS / RFU, GK / Fold change vs veh, GK / RFU, ZNF148 / Fold change vs veh, ZNF148 / RFU, TAF9 / Fold change vs veh, TAF9 / RFU, SLC1A5 / Fold change vs veh, SLC1A5 / RFU, SLMO2 / Fold change vs veh, SLMO2 / RFU, ABCC4 / Fold change vs veh, ABCC4 / RFU, LOC101060439 /// RAP1B / Fold change vs veh, LOC101060439 /// RAP1B / RFU, RFX7 / Fold change vs veh, RFX7 / RFU, GTPBP10 / Fold change vs veh, GTPBP10 / RFU, CNEP1R1 / Fold change vs veh, CNEP1R1 / RFU, BIVM-ERCC5 /// ERCC5 / Fold change vs veh, BIVM-ERCC5 /// ERCC5 / RFU, ILF3 / Fold change vs veh, ILF3 / RFU 11762660_at / Fold change /veh 11762660_at / RFU VCAN (11757783_s_at) / Fold change /veh VCAN (11757783_s_at) / RFU DDX43 (11728927_at) / Fold change /veh DDX43 (11728927_at) / RFU KRT8 (11758188_x_at) / Fold change /veh KRT8 (11758188_x_at) / RFU NKD1 (11759106_at) / Fold change /veh NKD1 (11759106_at) / RFU SRD5A1 (11742802_a_at) / Fold change /veh SRD5A1 (11742802_a_at) / RFU TPSAB1 /// TPSB2 (11721975_s_at) / Fold change /veh TPSAB1 /// TPSB2 (11721975_s_at) / RFU GSTM3 (11746129_a_at) / Fold change /veh GSTM3 (11746129_a_at) / RFU IL23R (11737362_x_at) / Fold change /veh IL23R (11737362_x_at) / RFU TMEM51 (11727254_a_at) / Fold change /veh TMEM51 (11727254_a_at) / RFU PIWIL2 (11732686_x_at) / Fold change /veh PIWIL2 (11732686_x_at) / RFU ORM1 (11744905_x_at) / Fold change /veh ORM1 (11744905_x_at) / RFU CCDC152 (11743942_at) / Fold change /veh CCDC152 (11743942_at) / RFU ECM1 (11717891_a_at) / Fold change /veh ECM1 (11717891_a_at) / RFU IL23R (11748794_a_at) / Fold change /veh IL23R (11748794_a_at) / RFU TNFAIP8L3 (11732012_x_at) / Fold change /veh TNFAIP8L3 (11732012_x_at) / RFU MBOAT4 (11741988_at) / Fold change /veh MBOAT4 (11741988_at) / RFU 11764193_at / Fold change /veh 11764193_at / RFU TMEM53 (11763286_at) / Fold change /veh TMEM53 (11763286_at) / RFU MAGEB2 (11727129_at) / Fold change /veh MAGEB2 (11727129_at) / RFU TMEM200A (11744735_a_at) / Fold change /veh TMEM200A (11744735_a_at) / RFU CCDC152 (11751479_a_at) / Fold change /veh CCDC152 (11751479_a_at) / RFU FAM211A (11726209_a_at) / Fold change /veh FAM211A (11726209_a_at) / RFU RGS16 (11746705_a_at) / Fold change /veh RGS16 (11746705_a_at) / RFU VCAN (11755009_s_at) / Fold change /veh VCAN (11755009_s_at) / RFU RHOB (11743442_s_at) / Fold change /veh RHOB (11743442_s_at) / RFU RGS16 (11720943_a_at) / Fold change /veh RGS16 (11720943_a_at) / RFU RGS16 (11720944_at) / Fold change /veh RGS16 (11720944_at) / RFU, VPS4B / Fold change vs veh, VPS4B / RFU, CREB1 / Fold change vs veh, CREB1 / RFU, DNAJC13 / Fold change vs veh, DNAJC13 / RFU, GNAQ / Fold change vs veh, GNAQ / RFU, CDK5R1 / Fold change vs veh, CDK5R1 / RFU, ZRANB3 / Fold change vs veh, ZRANB3 / RFU, CUL4A / Fold change vs veh, CUL4A / RFU, CCNY / Fold change vs veh, CCNY / RFU, UFL1 / Fold change vs veh, UFL1 / RFU, COG3 / Fold change vs veh, COG3 / RFU, DIAPH2 / Fold change vs veh, DIAPH2 / RFU, SKA2 / Fold change vs veh, SKA2 / RFU, AFF3 / Fold change vs veh, AFF3 / RFU, LMF1 / Fold change vs veh, LMF1 / RFU, IPO11 / Fold change vs veh, IPO11 / RFU, DFFB / Fold change vs veh, DFFB / RFU, FOXP1 / Fold change vs veh, FOXP1 / RFU, CARD8 / Fold change vs veh, CARD8 / RFU, STRN3 / Fold change vs veh, STRN3 / RFU, ADK / Fold change vs veh, ADK / RFU, RASSF2 / Fold change vs veh, RASSF2 / RFU, WIPF1 / Fold change vs veh, WIPF1 / RFU, LARP1B / Fold change vs veh, LARP1B / RFU, RASA1 / Fold change vs veh, RASA1 / RFU, RB1 / Fold change vs veh, RB1 / RFU, PPFIA1 / Fold change vs veh, PPFIA1 / RFU, MAT2A / Fold change vs veh, MAT2A / RFU, CCT5 / Fold change vs veh, CCT5 / RFU, WDR92 / Fold change vs veh, WDR92 / RFU, CUX1 / Fold change vs veh, CUX1 / RFU, TTC7A / Fold change vs veh, TTC7A / RFU, TMEM135 / Fold change vs veh, TMEM135 / RFU, DEPTOR / Fold change vs veh, DEPTOR / RFU, CPM / Fold change vs veh, CPM / RFU, DNAJB6 / Fold change vs veh, DNAJB6 / RFU, CACNA2D3 / Fold change vs veh, CACNA2D3 / RFU, DTX4 / Fold change vs veh, DTX4 / RFU, TFCP2 / Fold change vs veh, TFCP2 / RFU, GMCL1 /// GMCL1P1 / Fold change vs veh, GMCL1 /// GMCL1P1 / RFU, AEBP2 / Fold change vs veh, AEBP2 / RFU, SNHG1 /// SNORD22 /// SNORD25 /// SNORD26 /// SNORD27 /// SNORD28 /// SNORD29 /// SNORD31 / Fold change vs veh, SNHG1 /// SNORD22 /// SNORD25 /// SNORD26 /// SNORD27 /// SNORD28 /// SNORD29 /// SNORD31 / Fold change (Aza/veh), C12orf56 (ProbeSet 11735607_a_at) / Fold change (ACY-1035/veh), C12orf56 (ProbeSet 11735607_a_at) / Fold change (Aza/veh), FGFR1OP (ProbeSet 11751329_s_at) / Fold change (ACY-1035/veh), FGFR1OP (ProbeSet 11751329_s_at) / Fold change (Aza/veh), VPS36 (ProbeSet 11739960_a_at) / Fold change (ACY-1035/veh), VPS36 (ProbeSet 11739960_a_at) / RFU SYPL1 (11715823_x_at) / Fold change /veh SYPL1 (11715823_x_at) / RFU IGFBP7 (11715501_s_at) / Fold change /veh IGFBP7 (11715501_s_at) / RFU REEP3 (11722064_at) / Fold change /veh REEP3 (11722064_at) / RFU IGLL1 (11728026_x_at) / Fold change /veh IGLL1 (11728026_x_at): dose or concentration left out as unconfirmed
Conditions: MV-4-11 cells, 48 hours

## Nc1ccc(-c2cccs2)cc1NC(=O)c1ccc2c(c1)cc(C1CC1)n2CCN1CCOCC1 [ACY-1035]
  Fold change /veh PRF1 (11729649_at): 1.05
